Experimental data from PMC6359455, “Partial Solvation Parameters of Drugs as a New Thermodynamic Tool for Pharmaceutics” (Pharmaceutics, 2019).

How the values were obtained:
[1] = LSER descriptors by PSP approach from experimental inverse gas chromatography (IGC) data; assay type: physicochemical; conditions: initial or tentative estimates; for A (PSP): LSER acidity descriptor; for B (PSP): LSER basicity descriptor; for S (PSP): LSER polarity descriptor
Description: (§1) Inverse gas chromatography (IGC) was used to analyze solid samples packed into a chromatographic column as stationary phase. The equipment was a surface energy analyzer (iGC-SEA) from Surface Measurement Systems Ltd. (London, UK) and about 200 mg of each drug was inserted into silanized glass columns (3 mm inner diameter) by employing a standardized packing method with silanized glass wool that was used at both ends of the column as fixation. Prior to each measurement, the samples were conditioned for 1 h at 30 °C with dry helium with 0% relative humidity at a flow rate of 15 standard cubic centimeters per minute (sccm). Dead volume of the system was determined by injecting the inert probe methane prior and after each measurement. This stationary phase was flushed with an inert carrier gas—helium in the present study. Measuring conditions were the same as applied for sample conditioning, except for a flow rate of 10 sccm that was used. For all experiments, a relative surface coverage of 5% was selected.
The extent of interactions between the solid phase of interest and the probe gas is obtained by the net retention volume VN:(31) VN=j/mF(tR−t0)T/273.15, where T is the column temperature, F is the carrier gas flow rate at 1 atm and 273.15 K, m is the sample mass, tR is the retention time of the absorbed probe gas and t0 is the mobile phase hold up time, and finally, j represents the James–Martin correction (that adjusts retention time for the pressure drop effect in the column bed). The calculated retention volume VN is then used to estimate the mass activity coefficient, Ω at infinite dilution:(32) ln(Ω)=ln(273.15R/p0M1VN)−p0(B11−V1)/RT, where po is the saturation pressure and M is the molecular mass, while B11 is the second virial coefficient and V1 holds for molar volume of the probe gas. Conversion of the mass activity coefficient Ω to mole fraction activity coefficient γ (at infinite dilution) is done via the following equation:(33) lnγ1res,∞=ln(Ω1M1/M2)−(lnr1/r2+1−r1/r2)=r1χ12. and provided the basis for further thermodynamic analysis, as described in the Results section.
The PSP approach was used to characterize the studied drugs, that is, to determine their LSER descriptors from the experimental IGC data. The McGowan volume, Vx, is an atom-specific quantity and, thus, it is obtained either from the ACD software or from the freely accessible database via their SMILES form. […].
A and B descriptors were then obtained from IGC data with hydrogen-bonding probes (acidic, like chloroform, basic, like acetone, and homosolvated, like ethanol) correlated with Equation (34).

[2] = Differential scanning calorimetry (enthalpy of fusion); assay type: physicochemical; conditions: DSC, 10 °C/min, triplicate
Description: Differential scanning calorimetry (DSC) thermograms were obtained using a DSC 1 instrument from Mettler-Toledo AG (Greifensee, Switzerland). The instrument was calibrated for temperature and enthalpy using indium. Nitrogen was used as protective gas (150 mL/min). Samples (2–3 mg) were placed in 40 μL aluminum pans with pierced aluminum lids (Mettler-Toledo AG, Greifensee, Switzerland). The melting onset temperature (Tm) and the enthalpy of fusion (ΔHf) were determined by heating the samples at 10 °C/min from 25 °C to a maximum temperature of 300 °C. All DSC measurements were carried out in triplicate.

[3] = Surface energy components by IGC with the PSP/LSER method; assay type: physicochemical; conditions: for γd (dispersion component of surface energy): IGC, Dorris–Gray method, amorphous drug, 30 °C; for γhb (hydrogen-bonding surface energy component) / γa (acidic surface energy component) / γb (basic surface energy component) / γtot (total surface energy): PSP/LSER method; for γa (acidic surface energy component) / γb (basic surface energy component): Equation (27), unit assumed; for γtot (total surface energy): Equation (36)
Description: as §1
The PSP framework can also be used for the estimation of the surface energy components of the studied drugs. However, there are practically no data on the total surface energies of drugs available in the literature. Instead, the dispersion components, γd, were determined by the Dorris–Gray method. This dispersion component is practically equivalent to our nonhydrogen-bonding component, γVES. Thus, we may use Equation (29) in the equivalent form of Equation (36) and obtain the total surface energy of the drugs, γtot: (36) γtot=γd3.1Vx+E+S+2AB/3.1Vx+E+S.
In a similar manner, the acidity and basicity components of the surface energy are obtained from Equation (27).

[4] = Residual solid XRPD analysis after solubility equilibration in solvents; assay type: physicochemical; conditions: 24 h equilibration at room temperature in solvent
Description: All experiments were performed in triplicate. The drug concentration in the solvent bulk phase was determined simultaneously with a residual solid analysis of the drug by means of XRPD to detect possible solvent-mediated phase changes. Such residual solid analysis has been published before for a different miniaturized assay. […] The closed vials were equilibrated for 24 h by magnetic stirring at room temperature. […] An isocratic flow of a mixture of solvent A and solvent B was initially applied for 0.3 min at a flow rate of 0.75 mL/min. […] Table 1 summarizes the experimental conditions (initial composition of mobile phase, detection wave length) used for the different drugs. For solid state analysis, approx. 10-20 mg of the residual wet solids was manually transferred into a 96-well MultiScreen® Solubility Filter Plate (Millipore, Bedford, MA, USA) by a spatula. The filter plate was immediately sealed with adhesive acetate foil for microtest well plates (Sarstedt Inc., Newton, NC, USA) to minimize solvent evaporation. Solid state analysis of residual solids was based on a high-throughput XRPD method using a […] […] Samples were analyzed directly in the 96-well filter plate with an exposure time of 5 min per well.

[5] = Cohesive energy (solubility-parameter) components by the PSP/LSER method
[6] = parameters: method as in doi:10.1021/acs.iecr.7b02286; Vx (McGowan volume LSER descriptor): unit not given here; conditions: common solvents; cited from earlier work

A (PSP) [1]	B (PSP) [1]	S (PSP) [1]	ΔH^m (heat of fusion) [2] [kcal/mol]	γd (dispersion component of surface energy) [3] [mJ/m^2]	γhb (hydrogen-bonding surface energy component) [3] [mJ/m^2]	γtot (total surface energy) [3] [mJ/m^2]	Structure (SMILES)	Vx (McGowan volume LSER descriptor) [6]	further results
0.50	1.45	3.19	11.32 ± 0.0884	47.83	5.13	52.96	COc1ccccc1OCCNCC(O)COc1cccc2[nH]c3ccccc3c12 (stereo not shown) [Carvedilol, carvedilol]		γa (acidic surface energy component) [3]: 1.51 mJ/m^2; γb (basic surface energy component) [3]: 4.37 mJ/m^2; Residual solid form after solubility equilibration (XRPD) [4]: a changed solid form in dichloromethane after equilibration; σGa (acidity PSP) [5]: 3.92 MPa^0.5; σGb (basicity PSP) [5]: 6.68 MPa^0.5; σd (dispersion PSP) [5]: 19.75 MPa^0.5; σhb (hydrogen-bonding PSP) [5]: 8.14 MPa^0.5; σp (polarity PSP) [5]: 9.91 MPa^0.5
0.00	0.7 ± 0.3	2.75	12.71 ± 0.141	45.86	0.00	45.86	CC(=O)N1CCN(c2ccc(OCC3COC(Cn4ccnc4)(c4ccc(Cl)cc4Cl)O3)cc2)CC1 (stereo not shown) [Ketoconazole, ketoconazole]		γa (acidic surface energy component) [3]: 0 mJ/m^2; γb (basic surface energy component) [3]: 1.84 mJ/m^2; σGa (acidity PSP) [5]: 0.00 MPa^0.5; σGb (basicity PSP) [5]: 4.26 MPa^0.5; σd (dispersion PSP) [5]: 19.52 MPa^0.5; σhb (hydrogen-bonding PSP) [5]: 0.00 MPa^0.5; σp (polarity PSP) [5]: 8.45 MPa^0.5; σtot (square root of total cohesive energy density, equivalent to δtot) [5]: 21.27 MPa^0.5
0.00	0.6 ± 0.2	2.96	6.685 ± 0.043	41.6	0.00	41.60	CCOC(=O)N1CCC(=C2c3ccc(Cl)cc3CCc3cccnc32)CC1 [Loratadine, loratadine]		σd (dispersion PSP) [5]: 19.11 MPa^0.5; σp (polarity PSP) [5]: 9.87 MPa^0.5
0.20	0.7 ± 0.2	4.28	6.969 ± 0.198	57.36	2.64	60.00	CCC(C)(C)C(=O)O[C@H]1C[C@@H](C)C=C2C=C[C@H](C)[C@H](CC[C@@H]3C[C@@H](O)CC(=O)O3)[C@H]21 [Simvastatin, simvastatin]		γa (acidic surface energy component) [3]: 0.71 mJ/m^2; γb (basic surface energy component) [3]: 2.47 mJ/m^2
							C1CCOC1 [Tetrahydrofuran]	0.622	B (basicity LSER descriptor) [6]: 0.479; E (excess refractivity LSER descriptor) [6]: 0.291; S (polarity LSER descriptor) [6]: 0.524
							Cc1ccccc1 [Toluene]	0.857	E (excess refractivity LSER descriptor) [6]: 0.600; S (polarity LSER descriptor) [6]: 0.520
							O [Water]	0.167	A (acidity LSER descriptor) [6]: 0.820; B (basicity LSER descriptor) [6]: 0.350; E (excess refractivity LSER descriptor) [6]: 0.000; S (polarity LSER descriptor) [6]: 0.450
0.71	2.1	4.66	4.68 ± 0.406	49.43	5.64	55.07	COc1cc(C(=O)NS(=O)(=O)c2ccccc2C)ccc1Cc1cn(C)c2ccc(NC(=O)OC3CCCC3)cc12 [Zafirlukast, zafirlukast]		γa (acidic surface energy component) [3]: 1.64 mJ/m^2; γb (basic surface energy component) [3]: 4.85 mJ/m^2; Residual solid form after solubility equilibration (XRPD) [4]: at least one different solid form following equilibration; σGa (acidity PSP) [5]: 4.03 MPa^0.5; σGb (basicity PSP) [5]: 6.94 MPa^0.5; σd (dispersion PSP) [5]: 19.60 MPa^0.5; σhb (hydrogen-bonding PSP) [5]: 9.01 MPa^0.5; σp (polarity PSP) [5]: 10.33 MPa^0.5; σtot (square root of total cohesive energy density, equivalent to δtot) [5]: 23.92 MPa^0.5
							CCCCOC(C)=O [n-Butyl acetate]	1.028	B (basicity LSER descriptor) [6]: 0.449; E (excess refractivity LSER descriptor) [6]: 0.071; S (polarity LSER descriptor) [6]: 0.597
							CCCCCCCCCC [n-Decane]	1.518	
							CCCCCCC [n-Heptane]	1.095	
							CCCCCC [n-Hexane]	0.954	
							CCCCCCCCC [n-Nonane]	1.377	
							CCCCCCCC [n-Octane]	1.236	
